The source of these data is the NIST ThermoML archive (doi:10.1016/j.jct.2006.03.020).

Each structure is given as a SMILES string. Numbers after ± are expanded uncertainties.

The term mass density denotes mass per unit of volume.

The conditions of data set [1]: 298.15 K; 101.33 kPa; Liquid.
A short description of data set [2]: excess molar enthalpy (molar enthalpy of mixing); xn = mol fraction of the nth substance listed. The following applies: 298.15 K, 101 kPa, Liquid, Flow calorimetry.

On to `COC(C)(C)C` [2-methoxy-2-methylpropane], for which the mass density in data set [1] is given as 735.99 ± 0.74 kg/m3.

As for `CC1CCCO1` (stereo not drawn) [2-methyltetrahydrofuran], the mass density in data set [1] is listed as 848.1 ± 0.89 kg/m3.

On to `C=CCCCC` [hex-1-ene], for which the mass density in data set [1] is reported as 668.73 ± 1.4 kg/m3.

`C=CCCCC` [hex-1-ene] + C1CCOC1: the excess molar enthalpy is 0.0161 ± 0.000454 kcal/mol in data set [2] (x1 = 0.0501); 0.0304 ± 0.000669 kcal/mol in data set [2] (x1 = 0.097); 0.0446 ± 0.000884 kcal/mol in data set [2] (x1 = 0.1507); 0.055 ± 0.00105 kcal/mol in data set [2] (x1 = 0.1994); 0.0649 ± 0.00122 kcal/mol in data set [2] (x1 = 0.2501); 0.0729 ± 0.00136 kcal/mol in data set [2] (x1 = 0.3003). The excess molar enthalpy in data set [2] (x1 = 0.3499) is 0.0788 ± 0.00146 kcal/mol; in data set [2] (x1 = 0.3999), 0.0834 ± 0.00153 kcal/mol; in data set [2] (x1 = 0.45), 0.0859 ± 0.00158 kcal/mol; in data set [2] (x1 = 0.4977) it was 0.0876 ± 0.0016 kcal/mol; in data set [2] (x1 = 0.5494), 0.0869 ± 0.0016 kcal/mol; in data set [2] (x1 = 0.6006) it was 0.0844 ± 0.00155 kcal/mol. Further, the excess molar enthalpy in data set [2] (x1 = 0.649) turned out to be 0.0807 ± 0.00148 kcal/mol; in data set [2] (x1 = 0.6905) it was 0.0761 ± 0.00141 kcal/mol; in data set [2] (x1 = 0.7499), 0.0675 ± 0.00127 kcal/mol; in data set [2] (x1 = 0.7999), 0.0587 ± 0.00112 kcal/mol; in data set [2] (x1 = 0.8501), 0.0471 ± 0.000932 kcal/mol; in data set [2] (x1 = 0.8995), 0.0335 ± 0.000717 kcal/mol. Further, in data set [2] (x1 = 0.95), the excess molar enthalpy is 0.018 ± 0.000478 kcal/mol.

For `C1CCOC1` [tetrahydrofuran], the mass density in data set [1] was determined as 882.09 ± 0.8 kg/m3.
